The source of these data is patent US20040247696A1, “Methods of using electron active compounds for managing conditions afflicting mammals” (priority 2001, published 2004).

The conditions of data set [1]: animals not prone to silver allergies. The text has this:
Preferred routes of administration include topically and application to mucosa. Application can be made, for example, digitally or using a suitable applicator.

For data set [2], the system named is salmonella. The data set is described as follows: AOAC culture test, salmonella-contaminated aqueous solutions. The settings on record: ten minutes exposure. Format: cell-based. The procedure: Unless otherwise indicated, antimicrobial evaluations of the various fluorinator compounds tested were performed versus control samples in cultures in accordance with the protocol as set forth in AOAC (15th) 1990:965:13 at colony densities indicated in the examples.
Aqueous solutions were prepared having a salmonella contamination at a cell density of about 500,000 cfu/mL. Two solutions of XeF2 were prepared: one as a 1% solution in 85% phosphoric acid stabilizer, and a second solution containing no stabilizer. The materials were cultured versus controls at concentrations of about 2 ppm and about 4 ppm XeF2 and at a pH of about 9.

Data set [3] deals with coliform. As to the kind of experiment: AOAC culture test, coliform-contaminated water. The data set is classed as cell-based. The note with it: about 2 PPM XeF2 + about 20 PPM KPS, pH about 7, 37.4 cfu/mL. The protocol: These and other aspects of the present invention may be more fully understood with reference to the following examples, which are merely illustrative of the preferred embodiments of the present invention, and are not to be construed as limiting the invention, the scope of which is defined by the appended claims. Unless otherwise indicated, antimicrobial evaluations of the various fluorinator compounds tested were performed versus control samples in cultures in accordance with the protocol as set forth in AOAC (15th) 1990:965:13 at colony densities indicated in the examples.
Contaminated water was prepared and measured to have AOAC coliform counts averaging 37.4 colony forming units per milliliter (cfu/mL). The water was treated by first adding crystal potassium monopersulfate (KPS) stabilizer, commercially available from E.I. DuPont de Nemours & Co. Corp. as OXONE®, and xenon difluoride (XeF2). The concentration in solution of the KPS and XeF2 was about 20 PPM and about 2 PPM respectively, and the pH of the treated solution was about 7.

Take `[Ag+].[Ag+].[Ag+].[Ag+].[O-2].[O-2].[O-2].[O-2]` [Ag4O4, tetrasilver tetroxide]: the “Ill effects or irritation on application to the skin” value in data set [1] is “without any ill effects or evidence of irritation”.

As for `F[Xe]F` [XeF2, xenon difluoride], the salmonella inhibition entry in data set [2] (about 2 ppm XeF2, pH about 9, about 500,000 cfu/mL) is on record as “about 13.2%”; in data set [2] (about 4 ppm XeF2, pH about 9, about 500,000 cfu/mL) it was “about 96.4%”. In addition, the coliform inhibition entry in data set [3] (5 minutes exposure) is on record as “about 73%”; in data set [3] (10 minutes exposure), “about 77%”.
